{
  "source": "patent US9364475B2",
  "about": "“Tablet formulation of a phosphatidylinositol 3-kinase inhibitor” (Sanofi, priority 2012, dated 2016)",
  "key": {"[1]": {"molecular_target": "PI3K (phosphatidylinositol 3-kinase) (Homo sapiens, UniProt P42336)", "sequence (P42336 whole entry)": "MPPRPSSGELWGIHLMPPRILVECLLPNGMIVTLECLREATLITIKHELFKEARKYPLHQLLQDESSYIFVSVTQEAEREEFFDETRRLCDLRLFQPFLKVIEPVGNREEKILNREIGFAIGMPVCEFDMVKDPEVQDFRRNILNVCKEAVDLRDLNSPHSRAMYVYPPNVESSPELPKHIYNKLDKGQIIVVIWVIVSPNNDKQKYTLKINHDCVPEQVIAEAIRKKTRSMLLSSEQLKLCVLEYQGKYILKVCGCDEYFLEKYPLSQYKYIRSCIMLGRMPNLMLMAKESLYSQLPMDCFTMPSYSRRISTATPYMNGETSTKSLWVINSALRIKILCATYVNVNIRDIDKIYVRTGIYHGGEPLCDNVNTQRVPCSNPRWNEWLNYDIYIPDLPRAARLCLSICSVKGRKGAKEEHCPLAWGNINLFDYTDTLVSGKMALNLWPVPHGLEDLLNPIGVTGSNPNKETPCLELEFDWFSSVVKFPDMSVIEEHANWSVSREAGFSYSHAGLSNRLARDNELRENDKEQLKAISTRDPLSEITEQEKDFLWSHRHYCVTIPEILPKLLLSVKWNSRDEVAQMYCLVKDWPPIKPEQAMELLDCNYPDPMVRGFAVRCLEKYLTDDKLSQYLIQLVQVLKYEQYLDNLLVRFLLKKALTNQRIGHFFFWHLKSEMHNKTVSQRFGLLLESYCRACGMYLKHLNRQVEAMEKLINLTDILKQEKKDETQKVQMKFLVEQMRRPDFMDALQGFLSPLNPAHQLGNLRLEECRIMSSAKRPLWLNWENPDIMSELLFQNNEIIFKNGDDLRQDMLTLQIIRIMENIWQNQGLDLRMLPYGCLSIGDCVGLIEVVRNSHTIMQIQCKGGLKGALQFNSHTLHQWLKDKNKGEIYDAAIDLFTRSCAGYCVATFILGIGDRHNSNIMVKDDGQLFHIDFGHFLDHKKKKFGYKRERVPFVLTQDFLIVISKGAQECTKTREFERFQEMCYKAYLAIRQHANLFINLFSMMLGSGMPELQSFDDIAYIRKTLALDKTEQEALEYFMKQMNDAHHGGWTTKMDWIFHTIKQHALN", "sequence (P27986 whole entry partner)": "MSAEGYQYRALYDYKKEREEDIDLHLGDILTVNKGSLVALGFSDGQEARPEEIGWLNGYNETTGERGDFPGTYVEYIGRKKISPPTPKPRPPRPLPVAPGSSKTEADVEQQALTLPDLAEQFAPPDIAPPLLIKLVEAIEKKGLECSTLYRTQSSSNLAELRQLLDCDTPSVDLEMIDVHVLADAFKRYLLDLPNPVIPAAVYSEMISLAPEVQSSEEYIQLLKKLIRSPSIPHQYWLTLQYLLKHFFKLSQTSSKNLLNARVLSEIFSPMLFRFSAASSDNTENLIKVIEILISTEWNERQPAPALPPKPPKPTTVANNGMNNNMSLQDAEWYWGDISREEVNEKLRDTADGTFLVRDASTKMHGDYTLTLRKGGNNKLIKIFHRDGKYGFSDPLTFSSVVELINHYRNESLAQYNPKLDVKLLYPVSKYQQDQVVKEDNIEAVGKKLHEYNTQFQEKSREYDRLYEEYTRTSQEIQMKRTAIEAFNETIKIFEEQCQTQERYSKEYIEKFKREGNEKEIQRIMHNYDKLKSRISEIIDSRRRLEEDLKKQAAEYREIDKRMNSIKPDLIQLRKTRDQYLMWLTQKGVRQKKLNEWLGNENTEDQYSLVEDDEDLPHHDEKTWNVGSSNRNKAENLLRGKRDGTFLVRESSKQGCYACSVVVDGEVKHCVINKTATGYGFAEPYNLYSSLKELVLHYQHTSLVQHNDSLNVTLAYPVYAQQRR", "details": "cited from earlier work"}, "[2]": {"system": "PI3K signaling pathway", "details": "cell lines in vitro and human xenograft tumor tissue in vivo; cited from earlier work"}, "[3]": {"system": "human xenograft tumor models", "details": "multiple human xenograft tumor models; cited from earlier work"}, "[4]": {"test": "stability comparison of polymorphic forms", "format": "physicochemical", "details": "solid state, polymorphic forms of Compound (I)"}},
  "data": [
    {"smiles": "COc1ccc(Cl)c(Nc2nc3ccccc3[nH]/c2=N\\S(=O)(=O)c2cccc(NC(=O)C(C)(C)N)c2)c1", "note": "[Compound (I), N-(3-{[(2Z)-3-[(2-chloro-5-methoxyphenyl)amino]quinoxalin-2(1H)-ylidene]sulfamoyl}phenyl)-2-methylalaninamide]", "values": [
      {"measurement": "inhibition of PI3K", "setting": "[1]", "result": "potent and selective inhibitor"},
      {"measurement": "phosphorylation of multiple downstream components of the PI3K signaling pathway", "setting": "[2]", "result": "inhibits phosphorylation"},
      {"measurement": "tumor growth in human xenograft tumor models", "setting": "[3]", "result": "tumor growth inhibition and tumor regression"}
    ]},
    {"smiles": "COc1ccc(Cl)c(Nc2nc3ccccc3nc2NS(=O)(=O)c2cccc(NC(=O)C(C)(C)N)c2)c1", "note": "[Polymorph E, N-(3-{[(2Z)-3-[(2-chloro-5-methoxyphenyl)amino]quinoxalin-2(1H)-ylidene]sulfamoyl}phenyl)-2-methylalaninamide]", "values": [
      {"measurement": "stability among the polymorphic forms evaluated", "setting": "[4]", "result": "most stable polymorphic form"}
    ]}
  ]
}
